Where two headings read alike, the source gives them in different places.
Columns and labels:
[1] = system: acute experimental autoimmune encephalomyelitis (aEAE); experiment: inhibition of acute experimental autoimmune encephalomyelitis (aEAE) in mice; assay type: in vivo, mice (STUN female); conditions: for % aEAE Inhibition: percent inhibition of clinical scores vs saline treated controls
[2] = system: foetuses of pregnant female rats; experiment: Teratogenic Effects in the Rat; assay type: in vivo; conditions: 6 mg/kg/day (dose given for the N-methyl-N-phenyl compound), subcutaneous, day 8 to 14 of pregnancy
From the text: Teratogenic Effects in the Rat
The compounds were administrated subcutaneously to female rats during pregnancy, i.e., day 8 to 14 of pregnancy. The rats were caesarean sectioned and necropsied on day 20 after fertilization. The foetuses were examined for external and internal abnormalities.

[3] = system: beagle dogs; conditions: different breeds of beagle dogs; cited from earlier work
[4] = system: foetuses of pregnant female rats; conditions: rat; background statement; cited from earlier work
[5] = system: cell-mediated immunity; conditions: cited from earlier work
[6] = system: multiple sclerosis; conditions: cited from earlier work

Row | SMILES | % aEAE Inhibition ([1]; 0.2 mg/kg p.o.) [%] | % aEAE Inhibition ([1]; 1 mg/kg p.o.) [%] | teratogenic effect [2] | % aEAE Inhibition ([1]; 0.04 mg/kg p.o.) [%] | also measured
1 | CSc1cccc2c1c(O)c(C(=O)N(C)c1ccc(F)cc1F)c(=O)n2C [Compound B, N-methyl-N-(2,4-difluoro-phenyl)-1,2-dihydro-4-hydroxy-5-thiomethyl-1-methyl-2-oxo-quinoline-3-carboxamide] | 67 | 97 | non-teratogenic |  | 
2 | CCN(C(=O)c1c(O)c2c(SC)cccc2n(C)c1=O)c1ccccc1 [Compound A, N-ethyl-N-phenyl-1,2-dihydro-4-hydroxy-5-thiomethyl-1-methyl-2-oxo-quinoline-3-carboxamide] | 49 |  | non-teratogenic | 28 | 
3 | CN(C(=O)c1c(O)c2ccccc2n(C)c1=O)c1ccccc1 [Roquinimex, roquinimex] |  |  |  |  | inhibition of aEAE (treatment control) ([1]; at ≥5 mg/kg, mice): more than 50%; Beagle Pain Syndrome (BPS) induction [3]: induce the Beagle Pain Syndrome (BPS); teratogenic effect [4]: teratogenic in the rat; immunomodulatory activities [5]: multiple immunomodulatory activities not accompanied with general immunosuppression; clinical efficacy in conditions associated with MS ([6]; clinical trials comparing roquinimex to placebo): hold promise in the treatment of conditions associated with MS; dose-limiting side effects in man ([6]; man): induces dose-limiting side effects in man, e.g., a flu-like syndrome
4 | CSc1cccc2c1c(O)c(C(=O)N(C)c1ccccc1)c(=O)n2C [N-methyl-N-phenyl-1,2-dihydro-4-hydroxy-5-thiomethyl-1-methyl-2-oxo-quinoline-3-carboxamide] |  |  | teratogenic |  | 
5 | CSc1ccc2c(c1)c(O)c(C(=O)N(C)c1ccc(F)cc1F)c(=O)n2C [Compound D, N-methyl-N-(2,4difluoro-phenyl)-l,2-dihydro-4-hydroxy-6-thiomethyl-1-methyl-2-oxo-quinoline-3-carboxamide] | 0 | 66 |  |  | 
6 | CCN(C(=O)c1c(O)c2cc(SC)ccc2n(C)c1=O)c1ccccc1 [Compound C, N-ethyl-N-phenyl-1,2-dihydro-4-hydroxy-6-thiomethyl-1-methyl-2-oxo-quinoline3-carboxamide] | 23 |  |  | 0 | 
